Where a SMILES comes first, the peptide text is derived from it. [ ]: non-standard residue; d: D form.
Tests used:
[1] = test system: lymph node cells from MBP 87-99 immunized rats; experiment: Antigen-specific lymph node cell proliferation, MBP 87-99 immunized rats; format: cell-based, Lewis rats; settings: FIG. 3B, separate experiment
Procedure: Within the second assay, draining lymph node cells from Lewis rats or SJL mice injected with MBP (87-99) may be used. Preferably, this assay is used in combination with the proliferation assay using T cell lines. Briefly, Lewis rats or SJL mice are injected subcutaneously with MBP (87-99) peptide in complete Freund's adjuvant. Nine to ten days later, draining lymph node cells are isolated and single-cell suspensions are prepared. Lymph node cells are incubated with various concentrations of peptide analogues for three days in a humidified air chamber containing 6.5% CO2. After incubation, the cultures are pulsed with 1-2 μCi of [^3 H]-thymidine for 12-18 hours. Cultures are harvested on fiberglass filters and counted in a scintillation counter. Mean CPM and the standard error of the mean are calculated from data determined in triplicate cultures. […] Peptide analogues which are suitable for further screening will preferably, at concentrations of at least 10 μM, cause stimulation to a level of at least 25% of the native peptide.
Female Lewis rates, approximately six weeks old, are purchased from Harlan Sprague, Indianapolis, Ind. MBP peptides are dissolved in phosphate-buffered saline (PBS) and emulsified with an equal volume of complete Freund's adjuvant (Difco Laboratories, Inc., Detroit, Mich.) supplemented with 2 mg/ml of heat-killed Mycobacterium tuberculosis H37Ra in oil (Difco). […]

[2] = test system: EAE; settings: single 250 μg dose in CFA, pertussis toxin i.v. day 0 and 2
Procedure: Similarly, mice are injected with a single, 250 μg dose of MBP (87-99) or A97 in CFA containing 500 μg of heat killed Mycobacterium. Pertussis toxin (400 ng/mouse) is injected i.v. at day 0 and day 2. Mice are assessed for disease symptoms as described above.

[3] = test system: EAE; settings: rat, in vivo
[4] = test system: Murine MBP-specific T cell clones (AG.1H8); experiment: Proliferation of murine MBP-specific T cell clone AG.1H8; format: cell-based; settings: 72 hr, [3H]-thymidine
Procedure: Murine MBP-specific T cell clones were also used as targets in proliferation assays. T cell clones (30,000 cells) were cultured for 72 hr in the presence of MBP 87-99, A97, or PLP 139-151 (myelin proteolipid protein), and irradiated, syngeneic spleen cells. For 18 hr prior to harvesting, [^3 H]-thymidine was added to each culture. Incorporated thymidine was determined.

[5] = test system: IL-2 stimulated T cell line reactive to MBP 87-99; experiment: Cytokine production by MBP 87-99 reactive T cell line (ELISA); format: cell-based, SJL; settings: 48 hr; 10 μM PLP 139-151, 3 μM A97 or 3 μM MBP 87-99
Procedure: Other suitable assays of antigen-specific T cell responses include induction of cytokine production, phosphorylation of the CD3 zeta chain, and induction of apoptosis. Briefly, for assaying cytokine production, an IL-2-stimulated T cell line, which is reactive to MBP […], is incubated with IL-2 and various MBP peptide analogues. Cytokine release is measured at 48 hr. Cytokines are measured by ELISA, or alternatively, RNA expression of cytokines may be measured by Northern blot, RNase probe protection or other standard hybridization methods. Cytokines to be assayed include IL-1 through IL-14, γ-IFN, TNF, and the like. Phosphorylation of the CD3 zeta chain is assayed in MBP 87-89-specific T cells. Briefly, cells are co-incubated with antigen-presenting cells, such as T-depleted splenocytes, which have been pulsed with MBP 87-99 or peptide analogue. Cells are then lysed, and the zeta chain is immunoprecipitated and electrophoresed on an SDS-PAGE gel. The […] may be detected with an antibody. In a third assay, apoptosis may be induced in an antigen-specific manner. For this assay, an MBP stimulated T cell line is incubated with IL-2 and various peptides. Cell loss is measured by flow cytometry or other standard method.
Cytokine production by an IL-2 stimulated T cell line, which is reactive to MBP 87-99, is measured in response to various peptides and peptide analogues. The activated T cell line is co-cultured for 48 hr with a 10-fold excess of irradiated (3000 Rads) SJL T cell-depleted spleen cells, 50 IU/ml human rIL-2 and 10 μM PLP 139-151, 3 μM A97, or 3 μM MBP 87-99. Cytokine release is measured by ELISA.

[6] = test system: multiple sclerosis; settings: in vivo; cited from earlier work

Question: Which “proliferative response of lymph node cells” value [1] does the source give for CC[C@H](C)[C@H](NC(=O)[C@@H]1CCCN1C(=O)[C@@H](NC(=O)[C@@H](N)Cc1ccccc1)C(C)C)C(=O)N[C@@H](Cc1ccccc1)C(=O)N[C@H](C(=O)N[C@@H](Cc1ccc(O)cc1)C(=O)NCC(=O)N[C@@H](CCC(=O)O)C(=O)N[C@@H](CC(C)C)C(=O)N[C@@H](CCC(N)=O)C(=O)N[C@@H](CCCNC(=N)N)C(=O)N[C@@H](CCSC)C(=O)N[C@@H](CCC(N)=O)C(=O)N[C@@H](CCC(=O)O)C(=O)N[C@@H](CCCCN)C(=O)N[C@@H](CCC(=O)O)C(=O)N[C@@H](CCCNC(=N)N)C(=O)N[C@@H](CC(N)=O)C(=O)N[C@@H](CCCCN)C(=O)NCC(=O)N[C@@H](CCC(N)=O)C(=O)O)[C@@H](C)O [motlin] here?
Answer: not

Question: What does the source list for CC[C@H](C)[C@H](NC(=O)[C@H](CC(N)=O)NC(=O)[C@H](CCCCN)NC(=O)[C@H](Cc1ccccc1)NC(=O)[C@H](Cc1ccccc1)NC(=O)[C@H](Cc1c[nH]cn1)NC(=O)[C@@H](NC(=O)[C@@H](N)C(C)C)C(C)C)C(=O)N[C@H](C(=O)N[C@H](C(=O)N1CCC[C@H]1C(=O)N[C@@H](C)C(=O)N[C@H](C(=O)N1CCC[C@H]1C(=O)O)[C@@H](C)O)[C@@H](C)O)C(C)C [A97] (H-VVHFFKNIVTPATP-OH)?
Answer: animals developing disease [2]: 5/5; mean clinical score following injection ([2]; FIG. 11): increased mean clinical score

Question: With CC[C@H](C)[C@H](NC(=O)[C@H](CC(N)=O)NC(=O)[C@H](CCCCN)NC(=O)[C@H](Cc1ccccc1)NC(=O)[C@H](Cc1ccccc1)NC(=O)[C@@H](Cc1c[nH]cn1)NC(=O)[C@@H](NC(=O)[C@@H](N)C(C)C)C(C)C)C(=O)N[C@H](C(=O)N[C@H](C(=O)N1CCC[C@H]1C(=O)N[C@@H](CCCNC(=N)N)C(=O)N[C@H](C(=O)N1CCC[C@H]1C(=O)O)[C@@H](C)O)[C@@H](C)O)C(C)C [h88] (H-VV[dH]FFKNIVTPRTP-OH) as the molecule, how does the “induction of EAE” value [3] read?
Answer: does not induce EAE in rats

Question: Which Proliferation ([4]; 10 μM peptide) does the source give for “PLP 139-151: myelin proteolipid protein peptide 139-151, control peptide (CHCLGKWLGHPDK; UniProt P60202 139-151, looked up, fragment)” here?
Answer: 0.15 ± 0.03 CPM × 10^-3

Question: And the Proliferation ([4]; 50 μM peptide)?
Answer: 0.26 ± 0.12 CPM × 10^-3

Question: And the IL-2 release [5]?
Answer: 1646 pg/mL

Question: And the IL-4 release [5]?
Answer: 2197 pg/mL

Question: What about the γ-IFN release [5] of the same molecule?
Answer: 3073 pg/mL

B1: IFN-γ: cytokine administered in a pilot study in MS (protein, UniProt P01579 24-161, looked up)
Interferon gamma: QDPYVKEAENLKKYFNAGHSDVADNGTLFLGILKNWKEESDRKIMQSQIVSFYFKLFKNFKDDQSIQKSVETIKEDMNVKFFNSNKKKRDDFEKLTNYSVTDLNVQRKAIHELIQVMAELSPAAKTGKRKRSQMLFRG
Question: For B1, which “patients with a clinical exacerbation” value [6] is on record?
Answer: 7 of 18

From patent US5948764A, “Methods for treatment of multiple sclerosis utilizing peptide analogues of human myelin basic protein” (Neurocrine Biosciences, Inc., priority 1997, dated 1999)
